Patent US8263821B2, “Non-invasive real-time in vivo bioluminescence imaging of local CaÂ2+ dynamics in living organisms” (priority 2004, dated 2012)

Assays:
[1] = tested on: Ca2+ oscillations in somatosensory cortex slices; assay: Mitochondrial Ca2+ oscillations (bioluminescence) in organotypic cortical slices from mtGA transgenic mice; type: cell-based, mouse; conditions: D-APV 50 μM; slices from P4 mtGA mice, 4-5 days in culture
cortical neurons = assay: Single-cell Ca2+ induced bioluminescence in cortical neurons transfected with GA; type: cell-based; conditions: GA reconstituted with h coelenterazine
Protocol: Cultures were plated on to glass-bottomed dishes and mounted to a stage adapter on a fully automated inverted microscope mounted in a black-box. GFP-Aequorin was reconstituted with 2.5-5 μM coelenterazine for 30 minutes at 37° C. Incubation of cells with coelenterazine that had been transfected with SynGA was undertaken at room temperature to reduce the consumption of the photoprotein during the reconstitution process. Cells were perfused with tyrodes buffer. Prior to bath application of NMDA, cells were perfused for 1 minute without Mg^2+. All recordings were made at room temperature (22-25° C.). […]
The fluorescence/bioluminescence wide field microscopy system was custom built by ScienceWares, Inc. The system includes a fully automated inverted microscope (200M, Zeiss Germany) and is housed in a light-tight dark box. […] Low level light emission (photon rate <100 kHz), was collected using an Image Photon Detector (IPD 3, Photek Ltd.) connected to the baseport of the microscope, which assigns an X, Y coordinate and time point for each detected photon (Miller et al., 1994). The system is fully controlled by the data acquisition software, which also converts single photon events into an image that can be superimposed with brightfield or fluorescence images made by a connected CCD camera to the C-port (Coolsnap HQ, Roper Scientific). […]

With `N[C@H](CCCP(=O)(O)O)C(=O)O` [D-APV] the “block of Ca2+ oscillations generated by removal of Mg2+ from the buffer” value [1] was “completely and reversibly blocked”.

With `[Cl-].[K+]` [KCl] the “Ca2+ induced bioluminescence signal after stimulation” value (cortical neurons; KCl 90 mM) was “robust signal”.

In the case of `CN[C@H](CC(=O)O)C(=O)O` [NMDA], the “Ca2+ induced bioluminescence signal after stimulation” value (cortical neurons; NMDA 100 μM) is reported as “robust signal”.
